# From the NIST ThermoML archive (doi:10.1021/je800251v)
# Numbers after ± are expanded uncertainties.
# Settings: Liquid
smiles,measurement,setting,value
CCCC(=O)OCC [ethyl butanoate],mass density,"298.15 K, 100 kPa",873.3 ± 0.8 kg/m3
same,mass density,"298.15 K, 1000 kPa",874.1 ± 0.9 kg/m3
same,mass density,"298.15 K, 2000 kPa",875 ± 0.9 kg/m3
same,mass density,"298.15 K, 3000 kPa",875.9 ± 0.9 kg/m3
same,mass density,"298.15 K, 3100 kPa",876 ± 0.9 kg/m3
same,mass density,"298.15 K, 5000 kPa",877.5 ± 1 kg/m3
same,mass density,"298.15 K, 10000 kPa",881.5 ± 1.2 kg/m3
same,mass density,"298.15 K, 15000 kPa",885.3 ± 1.3 kg/m3
same,mass density,"298.15 K, 20000 kPa",889 ± 1.4 kg/m3
same,mass density,"298.15 K, 25000 kPa",892.5 ± 1.6 kg/m3
same,mass density,"298.15 K, 30000 kPa",896.9 ± 1.7 kg/m3
same,mass density,"298.15 K, 35000 kPa",901.4 ± 1.8 kg/m3
same,mass density,"303.15 K, 100 kPa",868.1 ± 0.8 kg/m3
same,mass density,"303.15 K, 1000 kPa",868.9 ± 0.9 kg/m3
same,mass density,"303.15 K, 2000 kPa",869.8 ± 0.9 kg/m3
same,mass density,"303.15 K, 3000 kPa",870.7 ± 0.9 kg/m3
same,mass density,"303.15 K, 3100 kPa",870.7 ± 0.9 kg/m3
same,mass density,"303.15 K, 5000 kPa",872.4 ± 1 kg/m3
same,mass density,"303.15 K, 10000 kPa",876.5 ± 1.2 kg/m3
same,mass density,"303.15 K, 15000 kPa",880.4 ± 1.3 kg/m3
same,mass density,"303.15 K, 20000 kPa",884.1 ± 1.5 kg/m3
same,mass density,"303.15 K, 25000 kPa",887.8 ± 1.6 kg/m3
same,mass density,"303.15 K, 30000 kPa",892.3 ± 1.7 kg/m3
same,mass density,"303.15 K, 35000 kPa",896.9 ± 1.8 kg/m3
same,mass density,"308.15 K, 100 kPa",862.6 ± 0.8 kg/m3
same,mass density,"308.15 K, 1000 kPa",863.5 ± 0.9 kg/m3
same,mass density,"308.15 K, 2000 kPa",864.4 ± 0.9 kg/m3
same,mass density,"308.15 K, 3000 kPa",865.3 ± 1 kg/m3
same,mass density,"308.15 K, 3100 kPa",865.4 ± 1 kg/m3
same,mass density,"308.15 K, 5000 kPa",867.1 ± 1 kg/m3
same,mass density,"308.15 K, 10000 kPa",871.4 ± 1.2 kg/m3
same,mass density,"308.15 K, 15000 kPa",875.5 ± 1.4 kg/m3
same,mass density,"308.15 K, 20000 kPa",879.4 ± 1.5 kg/m3
same,mass density,"308.15 K, 25000 kPa",883.1 ± 1.7 kg/m3
same,mass density,"308.15 K, 30000 kPa",887.8 ± 1.8 kg/m3
same,mass density,"308.15 K, 35000 kPa",892.5 ± 1.9 kg/m3
same,mass density,"313.15 K, 100 kPa",857.3 ± 0.9 kg/m3
same,mass density,"313.15 K, 1000 kPa",858.2 ± 0.9 kg/m3
same,mass density,"313.15 K, 2000 kPa",859.1 ± 0.9 kg/m3
same,mass density,"313.15 K, 3000 kPa",860.1 ± 1 kg/m3
same,mass density,"313.15 K, 3100 kPa",860.2 ± 1 kg/m3
same,mass density,"313.15 K, 5000 kPa",861.9 ± 1.1 kg/m3
same,mass density,"313.15 K, 10000 kPa",866.3 ± 1.2 kg/m3
same,mass density,"313.15 K, 15000 kPa",870.5 ± 1.4 kg/m3
same,mass density,"313.15 K, 20000 kPa",874.5 ± 1.6 kg/m3
same,mass density,"313.15 K, 25000 kPa",878.4 ± 1.7 kg/m3
same,mass density,"313.15 K, 30000 kPa",883.2 ± 1.8 kg/m3
same,mass density,"313.15 K, 35000 kPa",888.1 ± 2 kg/m3
same,mass density,"318.15 K, 100 kPa",851.9 ± 0.9 kg/m3
same,mass density,"318.15 K, 1000 kPa",852.8 ± 0.9 kg/m3
same,mass density,"318.15 K, 2000 kPa",853.8 ± 1 kg/m3
same,mass density,"318.15 K, 3000 kPa",854.8 ± 1 kg/m3
same,mass density,"318.15 K, 3100 kPa",854.9 ± 1 kg/m3
same,mass density,"318.15 K, 5000 kPa",856.7 ± 1.1 kg/m3
same,mass density,"318.15 K, 10000 kPa",861.3 ± 1.3 kg/m3
same,mass density,"318.15 K, 15000 kPa",865.8 ± 1.4 kg/m3
same,mass density,"318.15 K, 20000 kPa",869.9 ± 1.6 kg/m3
same,mass density,"318.15 K, 25000 kPa",874.1 ± 1.8 kg/m3
same,mass density,"318.15 K, 30000 kPa",879 ± 1.9 kg/m3
same,mass density,"318.15 K, 35000 kPa",884.1 ± 2 kg/m3
same,mass density,"323.15 K, 100 kPa",846.7 ± 0.9 kg/m3
same,mass density,"323.15 K, 1000 kPa",847.4 ± 0.9 kg/m3
same,mass density,"323.15 K, 2000 kPa",848.4 ± 1 kg/m3
same,mass density,"323.15 K, 3000 kPa",849.5 ± 1 kg/m3
same,mass density,"323.15 K, 3100 kPa",849.6 ± 1 kg/m3
same,mass density,"323.15 K, 5000 kPa",851.7 ± 1.1 kg/m3
same,mass density,"323.15 K, 10000 kPa",856.7 ± 1.3 kg/m3
same,mass density,"323.15 K, 15000 kPa",861.1 ± 1.5 kg/m3
same,mass density,"323.15 K, 20000 kPa",865.4 ± 1.6 kg/m3
same,mass density,"323.15 K, 25000 kPa",869.4 ± 1.8 kg/m3
same,mass density,"323.15 K, 30000 kPa",874.5 ± 1.9 kg/m3
same,mass density,"323.15 K, 35000 kPa",879.7 ± 2.1 kg/m3
same,mass density,"328.15 K, 100 kPa",841.4 ± 0.9 kg/m3
same,mass density,"328.15 K, 1000 kPa",842 ± 0.9 kg/m3
same,mass density,"328.15 K, 2000 kPa",843.3 ± 1 kg/m3
same,mass density,"328.15 K, 3000 kPa",844.5 ± 1 kg/m3
same,mass density,"328.15 K, 3100 kPa",844.6 ± 1 kg/m3
same,mass density,"328.15 K, 5000 kPa",846.6 ± 1.1 kg/m3
same,mass density,"328.15 K, 10000 kPa",851.5 ± 1.3 kg/m3
same,mass density,"328.15 K, 15000 kPa",856.2 ± 1.5 kg/m3
same,mass density,"328.15 K, 20000 kPa",860.5 ± 1.7 kg/m3
same,mass density,"328.15 K, 25000 kPa",864.8 ± 1.9 kg/m3
same,mass density,"328.15 K, 30000 kPa",870 ± 2 kg/m3
same,mass density,"328.15 K, 35000 kPa",875.3 ± 2.1 kg/m3
same,mass density,"333.15 K, 100 kPa",835.8 ± 0.9 kg/m3
same,mass density,"333.15 K, 1000 kPa",837 ± 1 kg/m3
same,mass density,"333.15 K, 2000 kPa",838.1 ± 1 kg/m3
same,mass density,"333.15 K, 3000 kPa",839.2 ± 1.1 kg/m3
same,mass density,"333.15 K, 3100 kPa",839.3 ± 1.1 kg/m3
same,mass density,"333.15 K, 5000 kPa",841.2 ± 1.1 kg/m3
same,mass density,"333.15 K, 10000 kPa",846.3 ± 1.3 kg/m3
same,mass density,"333.15 K, 15000 kPa",851.1 ± 1.5 kg/m3
same,mass density,"333.15 K, 20000 kPa",855.6 ± 1.7 kg/m3
same,mass density,"333.15 K, 25000 kPa",860.1 ± 1.9 kg/m3
same,mass density,"333.15 K, 30000 kPa",865.4 ± 2 kg/m3
same,mass density,"333.15 K, 35000 kPa",870.8 ± 2.2 kg/m3
